Source: patent US20140295425A1, “Diagnosis for Alzheimer's Disease” (The University of Birmingham, priority 2011, published 2014)

System: lymphocytes
Assay: Two-colour microarray gene expression analysis of lymphocytes treated with rapamycin vs untreated
Format: cell-based, human
Conditions: rapamycin 100 ng/ml, 24 h
Procedure: Two-colour microarray based gene expression analysis (Agilent Technologies) was used to identify genes that were differentially expressed in lymphocytes treated with rapamycin compared to lymphocytes that were left untreated. The microarray used was the Agilent Whole Human Genome Microarray: 4×44K.
Two parallel lymphocyte cultures were set up in RPMI medium supplemented with 10% FCS at a concentration of 1×10^6 cells per 1 ml of culture media. Phytohaemaglutinin (PHA) was added to the cultures at a final concentration of 22 μg/ml to activate the lymphocytes. Cultures were incubated for 48 hours at 37° C. in a humidified atmosphere containing 5% CO2. After 48 hours culture, one culture was treated with 100 ng/ml rapamycin, while the other untreated culture was kept as a control. After a further 24 hours, the cells of each lymphocyte culture were harvested by centrifugation.
RNA was extracted from the lymphocyte pellets using TRI Reagent® in accordance with standard protocol. To ensure that there was no DNA contamination, the RNA was treated with DNase (Qiagen) according to the manufacturer's standard protocol. RNA quality was determined by RNA nano-chip analysis using an Agilent 2100 Bioanalyser, also according to standard protocol. The RNA quality of the samples ranged from 8-10 RNA Integrity Number (RIN), indicative of good quality RNA suitable for gene expression microarray.
200 ng of RNA was converted to cDNA with the low-input quick amplification labelling kit (Agilent, 5190-2305). Spike Mix A and B were prepared separately. For each, the spike mix was thawed and vortexed, incubated at 37° C. for 5 minutes, and diluted in the provided dilution buffer (see Table 3 for dilution protocol). 2 μl of diluted spike mix A and spike mix B were added to 200 ng of RNA in a 1.5 μl volume from the rapamycin-treated and untreated lymphocytes respectively. […] The samples were incubated at 65° C. for 10 minutes, and placed on ice for 5 minutes. 4.7 μl of the cDNA master mix was added per sample, and samples incubated at 40° C. for 2 hours; 70° C. for 15 minutes; and placed on ice for 5 minutes.
The low-input quick amplification labelling kit (Agilent, 5190-2305) was used to convert the cDNA to labelled cRNA. Spike Mix A samples were added to transcription master mix prepared with Cyanine 3-CTP (green), whereas Spike Mix B samples were added to transcription master mix prepared with Cyanine 5-CTP (red). 6 μl of the transcription master mix was added per 10 μl cDNA sample, and incubated at 40° C. for 2 hours.
The cRNA was purified by standard RNeasy mini column protocol (Qiagen). The cRNA was quantified with a nanodrop spectrophotometer on the Microarray setting. The yield and specific activity of the cRNA samples were calculated as follows: […]
825 ng of labelled cRNA was added to various fragmentation components as described in Table 7, incubated at 60° C. for 30 minutes, and cooled on ice for 1 minute. 55 μl of GEx Hybridisation buffer HI-RPM was subsequently added to stop fragmentation. The samples were mixed, centrifuged at 13,000 rotations per minute (RPM) for 1 minute, and placed on ice in preparation for microarray assembly. The microarray of choice was the 4×44K Agilent Whole Human Genome Microarray. A clean gasket slide was placed into the chamber base, 100 μl of sample dispensed per well, and array placed onto the gasket slide to facilitate hybridisation. The gasket and microarray slides were clamped together and incubated at 65° C. for 17 hours.
Following hybridisation, the microarrays were washed in various wash solutions as described in Table 8. To summarise, the microarrays were removed from the hybridisation assembly and carefully separated from the gasket slide whilst fully submersed in wash buffer 1. Slides were washed for 1 minute, transferred to wash buffer 2 at 37° C. for 1 minute, and washed in acetonitrile for 10 seconds. The final wash was in stabilisation and drying solution for 30 seconds. […]

Compound: CO[C@H]1C[C@@H]2CC[C@@H](C)[C@@](O)(O2)C(=O)C(=O)N2CCCC[C@H]2C(=O)O[C@H]([C@H](C)C[C@@H]2CC[C@@H](O)[C@H](OC)C2)CC(=O)[C@H](C)/C=C(\C)[C@@H](O)[C@@H](OC)C(=O)[C@H](C)C[C@H](C)/C=C/C=C/C=C/1C [rapamycin]
- Fold change (gene ACPP (up-regulated)): 1.769
- Fold change (gene ACSL6 (down-regulated)): −1.795
- Fold change (gene ACSS1 (up-regulated)): 1.212
- Fold change (gene ADAMTS15 (up-regulated)): 1.095
- Fold change (gene ADAMTS16 (down-regulated)): −1.497
- Fold change (gene ADH6 (up-regulated)): 1.177
- Fold change (gene ADSSL1 (up-regulated)): 0.8544
- Fold change (gene ALDH1A3 (up-regulated)): 1.792
- Fold change (gene AMY1C, symbol AMY1A (includes others) (up-regulated)): 0.8998
- Fold change (gene AP1S1 (down-regulated)): −1.488
- Fold change (gene B3GALT4 (up-regulated)): 1.175
- Fold change (gene B4GALT6 (up-regulated)): 1.07
- Fold change (gene BMP7 (up-regulated)): 1.123
- Fold change (gene CA6 (up-regulated)): 1.029
- Fold change (gene CCL1 (up-regulated)): 1.135
- Fold change (gene CCL2 (down-regulated)): −2.661
- Fold change (gene CCL8 (down-regulated)): −2.62
- Fold change (gene CCL26 (up-regulated)): 1.662
- Fold change (gene COL8A2 (down-regulated)): −1.411
- Fold change (gene CROT (down-regulated)): −2.4978
- Fold change (gene CTSF (up-regulated)): 1.61
- Fold change (gene CYP3A5 (up-regulated)): 1.214
- Fold change (gene CYP4F3 (up-regulated)): 1.395
- Fold change (gene CYP4V2 (up-regulated)): 0.8253
- Fold change (gene CYP4X1 (up-regulated)): 1.062
- Fold change (gene DCLK1 (up-regulated)): 1.437
- Fold change (gene DHRS3 (up-regulated)): 0.8206
- Fold change (gene DTD1 (up-regulated)): 1.511
- Fold change (gene DUSP13 (up-regulated)): 1.045
- Fold change (gene DYNC2LI1 (down-regulated)): −1.902
- Fold change (gene DZIP3 (up-regulated)): 0.8533
- Fold change (gene EGLN3 (down-regulated)): −1.959
- Fold change (gene F9 (up-regulated)): 1.605
- Fold change (gene FGF2 (down-regulated)): −2.241
- Fold change (gene FGF18 (down-regulated)): −1.255
- Fold change (gene FJX1 (down-regulated)): −2.328
- Fold change (gene FUT9 (down-regulated)): −1.648
- Fold change (gene GBP3 (up-regulated)): 0.8462
- Fold change (gene GDA (up-regulated)): 1.596
- Fold change (gene GNAL (up-regulated)): 0.996
- Fold change (gene GPAM (down-regulated)): −1.231
- Fold change (gene GPX6 (up-regulated)): 1.702
- Fold change (gene HCK (down-regulated)): −1.403
- Fold change (gene HSD17B13 (up-regulated)): 1.51
- Fold change (gene IGBP1 (up-regulated)): 0.8038
- Fold change (gene IGF2 (up-regulated)): 1.185
- Fold change (gene IL1B (up-regulated)): 1.136
- Fold change (gene IL1RN (up-regulated)): 1.004
- Fold change (gene IL2 (down-regulated)): −1.407
- Fold change (gene IL3 (down-regulated)): −2.123
- Fold change (gene IL6 (down-regulated)): −1.3333
- Fold change (gene IL10 (down-regulated)): −2.727
- Fold change (gene INPP5E (down-regulated)): −1.4981
- Fold change (gene INPP5K (up-regulated)): 0.7753
- Fold change (gene JAK1 (up-regulated)): 0.8726
- Fold change (gene LEFTY1 (up-regulated)): 1.067
- Fold change (gene LEP (up-regulated)): 1.281
- Fold change (gene LIPF (up-regulated)): 1.349
- Fold change (gene LOXL3 (down-regulated)): −1.3654
- Fold change (gene MMP9 (up-regulated)): 1.152
- Fold change (gene MOXD1 (down-regulated)): −2.421
- Fold change (gene MPP4 (up-regulated)): 0.8611
- Fold change (gene MTHFR (up-regulated)): 0.8153
- Fold change (gene OGN (up-regulated)): 1.567
- Fold change (gene PAOX (up-regulated)): 0.8572
- Fold change (gene PDE1A (up-regulated)): 1.31
- Fold change (gene PDE4C (up-regulated)): 1.017
- Fold change (gene PDK4 (up-regulated)): 0.8187
- Fold change (gene PIM1 (up-regulated)): 1.101
- Fold change (gene PITPNM2 (up-regulated)): 0.8702
- Fold change (gene PLAT (up-regulated)): 0.8897
- Fold change (gene PLB1 (up-regulated)): 1.566
- Fold change (gene PLD1 (up-regulated)): 0.9334
- Fold change (gene PLGLB1, symbol PLGLB1/PLGLB2 (up-regulated)): 0.9441
- Fold change (gene PON3 (up-regulated)): 1.013
- Fold change (gene PRKG1 (down-regulated)): −1.116
- Fold change (gene PRODH2 (up-regulated)): 1.716
- Fold change (gene PRSS23 (up-regulated)): 1.012
- Fold change (gene PTGS2 (down-regulated)): −1.2871
- Fold change (gene PYCR1 (down-regulated)): −1.294
- Fold change (gene RAB37 (up-regulated)): 0.9052
- Fold change (gene RAB39 (up-regulated)): 0.8095
- Fold change (gene RND3 (up-regulated)): 0.9124
- Fold change (gene RPS6KB1 (up-regulated)): 1.481
- Fold change (gene RRAD (down-regulated)): −1.632
- Fold change (gene SGTA (down-regulated)): −1.403
- Fold change (gene SPP1 (up-regulated)): 1.471
- Fold change (gene SPRED2 (up-regulated)): 0.825
- Fold change (gene ST3GAL6 (up-regulated)): 1.175
- Fold change (gene ST6GALNAC2 (down-regulated)): −1.242
- Fold change (gene STK31 (up-regulated)): 1.092
- Fold change (gene STS (up-regulated)): 0.8677
- Fold change (gene TAC1 (down-regulated)): −1.262
- Fold change (gene TDH (up-regulated)): 1.414
- Fold change (gene THBS1 (down-regulated)): −1.359
- Fold change (gene TRIB1 (up-regulated)): 1.07
- Fold change (gene UBE2M (down-regulated)): −1.504
- Fold change (gene ULK2 (up-regulated)): 1.069
- Fold change (gene WWP2 (up-regulated)): 0.9105
- Fold change (gene ZADH2 (up-regulated)): 1.005
